# “And” between values parts separate entries of the source, which are not always exact repeats. Equal entries are not always repeated.
# Legend:
# Assay in all cases: CYP51 reconstitution assay
# Format in all cases: biochemical
# [1] = target: T1, CaCYP51 D278N (Candida albicans, UniProt P10613, D278N)
# T1 construct: made in house; host or cells: E. coli DH5α (pCWori+)
# Protocol: (§1) Azole antifungal agents were added in 2.5 μl dimethyl sulfoxide, followed by 10 min of incubation at 37°C prior to assay initiation with 4 mM β-NADPH-Na4. The samples were then shaken for 15 min at 37°C. Sterol metabolites were recovered by extraction with ethyl acetate, followed by derivatization with 0.1 ml N,O-bis(trimethylsilyl)trifluoroacetamide (BSTFA)–trimethylchlorosilane (TMCS) (99:1) and 0.3 ml anhydrous pyridine (2 h at 80°C), prior to analysis by gas chromatography-mass spectrometry (GC-MS) ([52]). IC50 determinations were performed in duplicate.
# [2] = target: T2, CaCYP51 D278N+G464S (Candida albicans, UniProt P10613, D278N/G464S)
# T2 construct: made in house; host or cells: E. coli DH5α (pCWori+)
# T2 sequence (P10613 whole entry, looked up, stated change not applied): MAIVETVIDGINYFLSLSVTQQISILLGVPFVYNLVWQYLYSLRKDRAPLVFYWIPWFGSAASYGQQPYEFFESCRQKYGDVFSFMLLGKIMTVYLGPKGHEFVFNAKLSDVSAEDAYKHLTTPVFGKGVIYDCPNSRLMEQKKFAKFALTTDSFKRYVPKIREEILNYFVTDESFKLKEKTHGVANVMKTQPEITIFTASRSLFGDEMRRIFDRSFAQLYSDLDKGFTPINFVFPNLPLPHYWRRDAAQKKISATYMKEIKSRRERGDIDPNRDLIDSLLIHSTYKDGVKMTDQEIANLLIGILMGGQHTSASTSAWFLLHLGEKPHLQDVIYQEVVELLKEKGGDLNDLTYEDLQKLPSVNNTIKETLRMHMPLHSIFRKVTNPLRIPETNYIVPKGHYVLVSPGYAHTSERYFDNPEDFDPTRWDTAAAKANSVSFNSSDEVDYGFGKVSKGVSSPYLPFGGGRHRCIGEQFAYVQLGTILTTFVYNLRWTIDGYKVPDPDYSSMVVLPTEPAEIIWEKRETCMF
# Protocol: as §1
# [3] = target: T3, CaCYP51 F126V (Candida albicans, UniProt P10613, F126V)
# T3 construct: made in house; host or cells: E. coli DH5α (pCWori+)
# T3 sequence (P10613 whole entry, looked up, stated change not applied): as above
# Protocol: as §1
# [4] = target: T4, CaCYP51 F145L (Candida albicans, UniProt P10613, F145L)
# T4 construct: made in house; host or cells: E. coli DH5α (pCWori+)
# T4 sequence (P10613 whole entry, looked up, stated change not applied): as above
# Protocol: as §1
# [5] = target: T5, CaCYP51 F449Y (Candida albicans, UniProt P10613, F449Y)
# T5 construct: made in house; host or cells: E. coli DH5α (pCWori+)
# Protocol: as §1
# [6] = target: T6, CaCYP51 G307S (Candida albicans, UniProt P10613, G307S)
# T6 construct: made in house; host or cells: E. coli DH5α (pCWori+)
# Protocol: as §1
# [7] = target: T7, CaCYP51 G307S+G450E (Candida albicans, UniProt P10613, G307S/G450E)
# T7 construct: made in house; host or cells: E. coli DH5α (pCWori+)
# T7 sequence (P10613 whole entry, looked up, stated change not applied): as above
# Protocol: as §1
# [8] = target: T8, CaCYP51 G448E (Candida albicans, UniProt P10613, G448E)
# T8 construct: made in house; host or cells: E. coli DH5α (pCWori+)
# Protocol: as §1
# [9] = target: T9, CaCYP51 G450E (Candida albicans, UniProt P10613, G450E)
# T9 construct: made in house; host or cells: E. coli DH5α (pCWori+)
# Protocol: as §1
# [10] = target: T10, CaCYP51 G464S (Candida albicans, UniProt P10613, G464S)
# T10 construct: made in house; host or cells: E. coli DH5α (pCWori+)
# Protocol: as §1
# [11] = target: T11, CaCYP51 I471T (Candida albicans, UniProt P10613, I471T)
# T11 construct: made in house; host or cells: E. coli DH5α (pCWori+)
# Protocol: as §1
# [12] = target: T12, CaCYP51 K143R (Candida albicans, UniProt P10613, K143R)
# T12 construct: made in house; host or cells: E. coli DH5α (pCWori+)
# Protocol: as §1
# [13] = target: T13, CaCYP51 P230L (Candida albicans, UniProt P10613, P230L)
# T13 construct: made in house; host or cells: E. coli DH5α (pCWori+)
# Protocol: as §1
# [14] = target: T14, CaCYP51 Q474K (Candida albicans, UniProt P10613, Q474K)
# T14 construct: made in house; host or cells: E. coli DH5α (pCWori+)
# T14 sequence (P10613 whole entry, looked up, stated change not applied): as above
# Protocol: as §1
# [15] = target: T15, CaCYP51 R467K (Candida albicans, UniProt P10613, R467K)
# T15 construct: made in house; host or cells: E. coli DH5α (pCWori+)
# T15 sequence (P10613 whole entry, looked up, stated change not applied): as above
# Protocol: as §1
# [16] = target: T16, CaCYP51 S279F (Candida albicans, UniProt P10613, S279F)
# T16 construct: made in house; host or cells: E. coli DH5α (pCWori+)
# T16 sequence (P10613 whole entry, looked up, stated change not applied): as above
# Protocol: as §1
# [17] = target: T17, CaCYP51 S405F (Candida albicans, UniProt P10613, S405F)
# T17 construct: made in house; host or cells: E. coli DH5α (pCWori+)
# Protocol: as §1
# [18] = target: T18, CaCYP51 V437I (Candida albicans, UniProt P10613, V437I)
# T18 construct: made in house; host or cells: E. coli DH5α (pCWori+)
# Protocol: as §1
# [19] = target: T19, CaCYP51 V456I (Candida albicans, UniProt P10613, V456I)
# T19 construct: made in house; host or cells: E. coli DH5α (pCWori+)
# Protocol: as §1
# [20] = target: T20, CaCYP51 V488I (Candida albicans, UniProt P10613, V488I)
# T20 construct: made in house; host or cells: E. coli DH5α (pCWori+)
# Protocol: as §1
# [21] = target: T21, CaCYP51 Wild type (Candida albicans, UniProt P10613)
# T21 construct: made in house; host or cells: E. coli DH5α (pCWori+)
# T21 sequence (P10613 whole entry, looked up, natural form): as the sequence (P10613 whole entry, looked up, stated change not applied) above
# Protocol: as §1
# [22] = target: T22, CaCYP51 Y118A (Candida albicans, UniProt P10613, Y118A); settings: mean ± SD, duplicate
# T22 construct: made in house; host or cells: E. coli DH5α (pCWori+)
# Protocol: as §1
# [23] = target: T23, CaCYP51 Y132F (Candida albicans, UniProt P10613, Y132F)
# T23 construct: made in house; host or cells: E. coli DH5α (pCWori+)
# Protocol: as §1
# [24] = target: T24, CaCYP51 Y132H (Candida albicans, UniProt P10613, Y132H)
# T24 construct: made in house; host or cells: E. coli DH5α (pCWori+)
# Protocol: as §1
# [25] = target: T25, CaCYP51 Y132H+K143R (Candida albicans, UniProt P10613, K143R/Y132H)
# T25 construct: made in house; host or cells: E. coli DH5α (pCWori+)
# T25 sequence (P10613 whole entry, looked up, stated change not applied): as above
# Protocol: as §1
# [26] = target: T26, CaCYP51 Y257H (Candida albicans, UniProt P10613, Y257H)
# T26 construct: made in house; host or cells: E. coli DH5α (pCWori+)
# Protocol: as §1
# [27] = target: T27, CaCYP51 Y447H (Candida albicans, UniProt P10613, Y447H)
# T27 construct: made in house; host or cells: E. coli DH5α (pCWori+)
# Protocol: as §1
# [28] = 0.25 h, 4 μM triazole, % of activity without triazole, read-out: Residual CYP51 activity (%) ± SD
smiles,measurement,setting,value
"OC(Cn1cncn1)(Cn1cncn1)c1ccc(F)cc1F [Fluconazole, fluconazole]",remaining activity at 4 µM,[1]; [28],7.59 ± 0.58%
same,IC50,"[1]; mean ± SD, duplicate",838 ± 27 nM
same,fold increase in IC50 over wild-type enzyme,[2],3 fold and 3.2 fold
same,remaining activity at 4 µM,[2]; [28],18.26 ± 0.08%
same,IC50,"[2]; mean ± SD, duplicate",1240 ± 64 nM
same,remaining activity at 4 µM,[3]; [28],0.09 ± 0.06%
same,IC50,"[3]; mean ± SD, duplicate",278 ± 27 nM
same,remaining activity at 4 µM,[4]; [28],6.71 ± 0.15%
same,IC50,"[4]; mean ± SD, duplicate",450 ± 83 nM
same,remaining activity at 4 µM,[5]; [28],0.76 ± 0.08%
same,IC50,"[5]; mean ± SD, duplicate",245 ± 28 nM
same,remaining activity at 4 µM,[6]; [28],0.95 ± 0.17%
same,IC50,"[6]; mean ± SD, duplicate",526 ± 211 nM
same,fold increase in IC50 over wild-type enzyme,[7],13 fold
same,remaining activity at 4 µM,[7]; [28],56.8 ± 2.3%
same,IC50,"[7]; mean ± SD, duplicate",4980 ± 54 nM
same,remaining activity at 4 µM,[8]; [28],10.5 ± 0.2%
same,IC50,"[8]; mean ± SD, duplicate",796 ± 87 nM
same,remaining activity at 4 µM,[9]; [28],18.9 ± 0.94%
same,IC50,"[9]; mean ± SD, duplicate",1080 ± 247 nM
same,remaining activity at 4 µM,[10]; [28],3.05 ± 0.17%
same,IC50,"[10]; mean ± SD, duplicate",455 ± 47 nM
same,remaining activity at 4 µM,[11]; [28],4.35 ± 0.33%
same,IC50,"[11]; mean ± SD, duplicate",600 ± 17 nM
same,remaining activity at 4 µM,[12]; [28],28.1 ± 2.04%
same,IC50,"[12]; mean ± SD, duplicate",1100 ± 313 nM
same,remaining activity at 4 µM,[13]; [28],0.05 ± 0.03%
same,IC50,"[13]; mean ± SD, duplicate",334 ± 86 nM
same,remaining activity at 4 µM,[14]; [28],0.71 ± 0.08%
same,IC50,"[14]; mean ± SD, duplicate",358 ± 8 nM
same,remaining activity at 4 µM,[15]; [28],3.34 ± 0.61%
same,IC50,"[15]; mean ± SD, duplicate",476 ± 80 nM
same,remaining activity at 4 µM,[16]; [28],18 ± 1.67%
same,IC50,"[16]; mean ± SD, duplicate",1050 ± 325 nM
same,remaining activity at 4 µM,[17]; [28],11.6 ± 1.41%
same,IC50,"[17]; mean ± SD, duplicate",820 ± 42 nM
same,remaining activity at 4 µM,[18]; [28],0.22 ± 0.06%
same,IC50,"[18]; mean ± SD, duplicate",281 ± 4 nM
same,remaining activity at 4 µM,[19]; [28],3.68 ± 0.95%
same,IC50,"[19]; mean ± SD, duplicate",483 ± 22 nM
same,remaining activity at 4 µM,[20]; [28],1.06 ± 0.04%
same,IC50,"[20]; mean ± SD, duplicate",520 ± 57 nM
same,remaining activity at 4 µM,"[21]; 0.25 h, read-out: Residual CYP51 activity (%) ± SD",0.11 ± 0.09%
same,IC50,[21]; IC50,384 ± 19 nM
same,IC50,[22],194 ± 10 nM
same,remaining activity at 4 µM,[23]; [28],7.05 ± 0.27%
same,IC50,"[23]; mean ± SD, duplicate",606 ± 66 nM
same,remaining activity at 4 µM,[24]; [28],0.86 ± 0.07%
same,IC50,"[24]; mean ± SD, duplicate",220 ± 13 nM
same,fold increase in IC50 over wild-type enzyme,[25],22 fold and 22.1 fold
same,remaining activity at 4 µM,[25]; [28],68.8 ± 5.68%
same,IC50,"[25]; mean ± SD, duplicate",8470 ± 1270 nM
same,remaining activity at 4 µM,[26]; [28],3.96 ± 0.18%
same,IC50,"[26]; mean ± SD, duplicate",512 ± 47 nM
same,remaining activity at 4 µM,[27]; [28],4.34 ± 0.51%
same,IC50,"[27]; mean ± SD, duplicate",483 ± 18 nM

# — publication PMC6496074, “The Evolution of Azole Resistance in Candida albicans Sterol 14α-Demethylase (CYP51) through Incremental Amino Acid Substitutions” (Antimicrobial Agents and Chemotherapy, 2019)
